Test results taken from ChEMBL document CHEMBL2021890, “A new class of prolylcarboxypeptidase inhibitors, part 1: discovery and evaluation” (Bioorg Med Chem Lett, 2012).

Tests used:
Mus musculus [1] = experiment: Ex-vivo inhibition of PrCP in heat inactivated 100% plasma of C57 mouse assessed as target engagement at 100 mg/kg, po after 20 hrs by FRET analysis; assay type: functional
[2] = Drug uptake in C57 mouse brain at 100 mg/kg, po after 20 hrs by LC/MS analysis; assay type: ADME, organism-based; design: dose 100 mg/kg, route oral; details: read-out: Drug uptake
Mus musculus [3] = experiment: Ex-vivo inhibition of PrCP in heat inactivated 100% plasma of C57 mouse assessed as target engagement at 100 mg/kg, po after 20 hrs calculated as [cmpd]plasma/([cmpd]plasma + Ki (heat inactivated plasma))x100; assay type: functional
[4] = Apparent permeability across pig LLC-PK1 cells at 5 uM; assay type: ADME, cell-based, Sus scrofa
[5] = Ratio of apparent permeability from basolateral to apical side over apical to basolateral side in […] LLC cells expressing human MDR1 at 5 uM; assay type: ADME, cell-based
Mus musculus [6] = experiment: Ex-vivo inhibition of po dosed mouse PrCP in the absence of plasma by FRET analysis; assay type: functional, organism-based
Mus musculus [7] = experiment: Plasma shift, ratio of Ki for PrCP in heat inactivated 100% plasma of po dosed mouse to Ki for po dosed mouse PrCP in the absence of plasma; assay type: functional
[8] = Ratio of apparent permeability from basolateral to apical side over apical to basolateral side in […] LLC cells expressing […] MDR1a at 5 uM; assay type: ADME, cell-based
[9] = Ratio of drug level in brain to plasma in C57 mouse at 100 mg/kg, po after 20 hrs by LC/MS analysis; assay type: ADME, organism-based; design: dose 100 mg/kg, route oral; details: read-out: BPR
Mus musculus [10] = experiment: Ex-vivo inhibition of PrCP in heat inactivated 100% plasma of po dosed mouse by FRET analysis; assay type: functional, organism-based
Mus musculus [11] = experiment: Ex-vivo inhibition of PrCP in heat inactivated 25% plasma of po dosed mouse by FRET analysis; assay type: functional, organism-based
[12] = Drug uptake in C57 mouse plasma at 100 mg/kg, po after 20 hrs by LC/MS analysis; assay type: ADME, organism-based; design: dose 100 mg/kg, route oral
[13] = Volume of distribution in mouse at 0.5 mg/kg, iv and 1 mg/kg, po; assay type: ADME, organism-based; details: in vivo
[14] = Drug uptake in C57 mouse brain at 30 mg/kg, po after 20 hrs by LC/MS analysis; assay type: ADME, organism-based; design: dose 30 mg/kg, route oral; details: read-out: Drug uptake
Mus musculus [15] = experiment: Dose normalized AUC in mouse at 1 mg/kg, po; assay type: ADME, organism-based; design: dose 1 mg/kg, route oral; details: in vivo
[16] = Plasma protein binding in 10% mouse plasma assessed as percentage unbound; assay type: ADME, cell-free
Mus musculus [17] = experiment: Ex-vivo inhibition of PrCP in heat inactivated 100% plasma of C57 mouse assessed as target engagement at 30 mg/kg, po after 20 hrs by FRET analysis; assay type: functional
[18] = Drug uptake in C57 mouse plasma at 30 mg/kg, po after 20 hrs by LC/MS analysis; assay type: ADME, organism-based; design: dose 30 mg/kg, route oral
[19] = Clearance in mouse at 0.5 mg/kg, iv and 1 mg/kg, po; assay type: ADME, organism-based; details: in vivo
[20] = Oral bioavailability in mouse at 1 mg/kg; assay type: ADME, organism-based; details: in vivo
[21] = Apparent permeability across pig LLC-PK1 cells at 1 uM; assay type: ADME, cell-based, Sus scrofa
[22] = Metabolic stability in mouse liver microsomes after 30 mins by LC/MS analysis; assay type: ADME, Microsome; details: read-out: Stability
[23] = molecular target: T1, Lysosomal Pro-X carboxypeptidase (Mus musculus, UniProt Q7TMR0); experiment: Inhibition of mouse PrCP
T1 sequence (Q7TMR0 whole entry): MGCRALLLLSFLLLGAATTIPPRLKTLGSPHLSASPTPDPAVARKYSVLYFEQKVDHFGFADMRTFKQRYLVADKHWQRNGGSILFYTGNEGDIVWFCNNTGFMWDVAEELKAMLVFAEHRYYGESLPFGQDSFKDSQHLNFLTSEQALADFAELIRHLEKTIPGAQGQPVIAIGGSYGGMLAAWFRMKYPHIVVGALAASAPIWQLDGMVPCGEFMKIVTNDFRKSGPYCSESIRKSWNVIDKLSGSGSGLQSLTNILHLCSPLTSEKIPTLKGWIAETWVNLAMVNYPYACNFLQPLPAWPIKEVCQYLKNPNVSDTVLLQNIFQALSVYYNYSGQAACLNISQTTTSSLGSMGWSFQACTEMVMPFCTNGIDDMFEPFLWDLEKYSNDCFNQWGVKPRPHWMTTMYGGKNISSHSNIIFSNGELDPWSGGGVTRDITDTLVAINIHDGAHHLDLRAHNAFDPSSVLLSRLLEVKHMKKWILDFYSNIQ

[24] = Plasma protein binding in 10% human plasma assessed as percentage unbound; assay type: ADME, cell-free
[25] = Ratio of drug level in brain to plasma in C57 mouse at 30 mg/kg, po after 20 hrs by LC/MS analysis; assay type: ADME, organism-based; design: dose 30 mg/kg, route oral; details: read-out: BPR
Mus musculus [26] = experiment: Ex-vivo inhibition of PrCP in heat inactivated 100% plasma of C57 mouse assessed as target engagement at 30 mg/kg, po after 20 hrs calculated as [cmpd]plasma/([cmpd]plasma + Ki (heat inactivated plasma))x100; assay type: functional
[27] = Metabolic stability in human liver microsomes after 30 mins by LC/MS analysis; assay type: ADME, Microsome; details: read-out: Stability
[28] = Half life in mouse at 0.5 mg/kg, iv and 1 mg/kg, po; assay type: ADME, organism-based; details: in vivo
[29] = Drug uptake in C57 mouse brain at 80 mg/kg, po after 20 hrs by LC/MS analysis; assay type: ADME, organism-based; design: dose 80 mg/kg, route oral; details: read-out: Drug uptake
Mus musculus [30] = experiment: Ex-vivo inhibition of PrCP in heat inactivated 100% plasma of C57 mouse assessed as target engagement at 80 mg/kg, po after 20 hrs by FRET analysis; assay type: functional
[31] = Ratio of drug level in brain to plasma in C57 mouse at 80 mg/kg, po after 20 hrs by LC/MS analysis; assay type: ADME, organism-based; design: dose 80 mg/kg, route oral; details: read-out: BPR
Mus musculus [32] = experiment: Ex-vivo inhibition of PrCP in heat inactivated 100% plasma of C57 mouse assessed as target engagement at 80 mg/kg, po after 20 hrs calculated as [cmpd]plasma/([cmpd]plasma + Ki (heat inactivated plasma))x100; assay type: functional
[33] = Drug uptake in C57 mouse plasma at 80 mg/kg, po after 20 hrs by LC/MS analysis; assay type: ADME, organism-based; design: dose 80 mg/kg, route oral
[34] = Drug uptake in C57 mouse plasma at 10 mg/kg, po after 20 hrs by LC/MS analysis; assay type: ADME, organism-based; design: dose 10 mg/kg, route oral
[35] = Drug uptake in C57 mouse brain at 10 mg/kg, po after 20 hrs by LC/MS analysis; assay type: ADME, organism-based; design: dose 10 mg/kg, route oral; details: read-out: Drug uptake
Mus musculus [36] = experiment: Ex-vivo inhibition of PrCP in heat inactivated 100% plasma of C57 mouse assessed as target engagement at 10 mg/kg, po after 20 hrs by FRET analysis; assay type: functional
Mus musculus [37] = experiment: Ex-vivo inhibition of PrCP in heat inactivated 100% plasma of C57 mouse assessed as target engagement at 10 mg/kg, po after 20 hrs calculated as [cmpd]plasma/([cmpd]plasma + Ki (heat inactivated plasma))x100; assay type: functional
[38] = Ratio of drug level in brain to plasma in C57 mouse at 10 mg/kg, po after 20 hrs by LC/MS analysis; assay type: ADME, organism-based; design: dose 10 mg/kg, route oral; details: read-out: BPR
[39] = Half life in mouse at 2 mg/kg, iv and 10 mg/kg, po; assay type: ADME, organism-based; details: in vivo
[40] = Oral bioavailability in mouse at 10 mg/kg; assay type: ADME, organism-based; details: in vivo
Mus musculus [41] = experiment: Dose normalized AUC in mouse at 10 mg/kg, po; assay type: ADME, organism-based; design: dose 10 mg/kg, route oral; details: in vivo
[42] = Volume of distribution in mouse at 2 mg/kg, iv and 10 mg/kg, po; assay type: ADME, organism-based; details: in vivo
[43] = Clearance in mouse at 2 mg/kg, iv and 10 mg/kg, po; assay type: ADME, organism-based; details: in vivo

| Structure (SMILES) | inhibition in vivo at 100 mg/kg (Mus musculus [1]) | concentration at 20 h [2] | inhibition in vivo at 100 mg/kg (Mus musculus [3]) | Ki (Mus musculus [6]) | Kp at 20 h [9] | Ki (Mus musculus [10]) | Ki (Mus musculus [11]) | concentration at 20 h [12] | Vd [13] | AUC/dose (Mus musculus [15]) | fraction unbound [16] | clearance [19] | bioavailability [20] | Papp at 1 µM [21] | remaining at 0.5 h [22] | IC50 [23] | fraction unbound [24] | remaining at 0.5 h [27] | half-life [28] | other results |
| --- | --- | --- | --- | --- | --- | --- | --- | --- | --- | --- | --- | --- | --- | --- | --- | --- | --- | --- | --- | --- |
| C[C@@H](c1ccc(-c2ccccc2)cc1)[C@H](NC(=O)C(C)(C)N)C(=O)N1CCC[C@H]1c1nc2cc(Cl)c(Cl)cc2[nH]1 | 97.2% | 757 nM | 99.5% | 0.7 nM | 0.24 | 16.3 nM | 4.6 nM | 3120 nM | – | – | – | – | – | – | – | – | – | – | – | Papp at 5 µM [4]: 2.3 ×10⁻⁶ cm/s; Ratio [5]: 8; Ratio Ki (Mus musculus [7]): 23.3; Ratio [8]: 4.2 |
| Cc1cc(C2CCN(C(=O)[C@@H]3CN(C(C)(C)C)C[C@H]3c3ccc(F)cc3F)CC2)n(-c2cc(Cl)ccc2Cl)n1 | – | – | – | 0.4 nM | – | 0.9 nM | 0.5 nM | – | 13 L/kg | 0.19 µM·kg·h/mg | 0.17 | 48 mL/min/kg | 31% | 26.9 ×10⁻⁶ cm/s | 43% | 0.4 nM | 0.11 | 30% | 2.9 h | concentration at 20 h [14]: 698 nM; inhibition in vivo at 30 mg/kg (Mus musculus [17]): 97.7%; concentration at 20 h [18]: 547 nM; Kp at 20 h [25]: 1.35; inhibition in vivo at 30 mg/kg (Mus musculus [26]): 99.8% |
| Cc1cc(C2CCN(C(=O)[C@@H]3CN(C(C)(C)C)C[C@H]3c3ccc(F)cc3F)CC2)n(-c2ccc(F)c(F)c2)n1 | – | – | – | 6.4 nM | – | 18.3 nM | 9.3 nM | – | 13 L/kg | 0.2 µM·kg·h/mg | 0.16 | 71 mL/min/kg | 46% | 28 ×10⁻⁶ cm/s | 52% | 9.1 nM | 0.25 | 39% | 1.9 h | concentration at 20 h [29]: 1180 nM; inhibition in vivo at 80 mg/kg (Mus musculus [30]): 99.4%; Kp at 20 h [31]: 0.63; inhibition in vivo at 80 mg/kg (Mus musculus [32]): 99.1%; concentration at 20 h [33]: 1910 nM |
| CC(C)(C)N1C[C@@H](C(=O)N2CCC(c3ccnn3-c3ccc(F)c(Cl)c3)CC2)[C@H](c2ccc(F)cc2F)C1 | 99.9% | 801 nM | 99.9% | 0.5 nM | 0.46 | 1.4 nM | 0.7 nM | 1800 nM | 22 L/kg | 0.05 µM·kg·h/mg | 0.16 | 121 mL/min/kg | 18% | 28.8 ×10⁻⁶ cm/s | 3% | 0.3 nM | 0.18 | 4% | 3.1 h | concentration at 20 h [34]: 196 nM; concentration at 20 h [35]: 21 nM; inhibition in vivo at 10 mg/kg (Mus musculus [36]): 99.5%; inhibition in vivo at 10 mg/kg (Mus musculus [37]): 99.3%; Kp at 20 h [38]: 0.11 |
| Cc1nc(C2CCN(C(=O)[C@@H]3CN(C(C)(C)C)C[C@H]3c3ccc(F)cc3F)CC2)n(-c2ccc(Cl)c(C)c2)n1 | – | – | – | 1 nM | – | 1.4 nM | 1.1 nM | – | – | – | 0.13 | – | – | – | 22% | 10 nM | 0.16 | 11% | – | half-life [39]: 1.8 h; bioavailability [40]: 20%; AUC/dose (Mus musculus [41]): 0.05 µM·kg·h/mg; Vd [42]: 17 L/kg; clearance [43]: 128 mL/min/kg |
